{
  "source": "patent US20110183848A1",
  "about": "“Piperazine Compounds With Herbicidal Effect” (BASF SE, priority 2008, published 2011)",
  "key": {"ECHCG": {"system": "ECHCG", "test": "greenhouse test, post-emergence treatment", "assay_type": "in vivo, Echinochloa crus-galli", "details": "application rate 1.0 kg/ha, scale 0 to 100", "text": "(§1) The culture containers used were plastic flowerpots containing loamy sand with approximately 5.8% of humus as the substrate. The seeds of the test plants were sown separately for each species.\n(§2) For the post-emergence treatment, the test plants were first grown to a height of 3 to 15 cm, depending on the plant habit, and then treated with the active compounds which had been suspended or emulsified in water. For this purpose, the test plants were either sown directly and grown in the same containers, or they were first grown separately as seedlings and transplanted into the test containers a few days prior to treatment.\n(§3) Depending on the species, the plants were kept at 10-25° C. or 20-35° C. The test period extended over 2 to 4 weeks. During this time, the plants were tended, and their response to the individual treatments was evaluated.\n(§4) Evaluation was carried out using a scale from 0 to 100. 100 means no emergence of the plants, or complete destruction of at least the aerial moieties, and 0 means no damage, or normal course of growth. A good herbicidal activity is given at values of at least 70 and a very good herbicidal activity is given at values of at least 85.\n(§5) The plants used in the greenhouse experiments belonged to the following species: […]"}, "SETIT": {"system": "SETIT", "test": "greenhouse test, post-emergence treatment", "assay_type": "in vivo, Setaria italica", "details": "application rate 1.0 kg/ha, scale 0 to 100", "text": "as §1, §2, §3, §4, §5"}, "CHEAL": {"system": "CHEAL", "test": "greenhouse test, post-emergence treatment", "assay_type": "in vivo, Chenopodium album", "details": "application rate 0.5 kg/ha, scale 0 to 100", "text": "as §1, §2, §3, §4, §5"}, "SETFA [1]": {"system": "SETFA", "test": "greenhouse test, post-emergence treatment", "assay_type": "in vivo, Setaria faberi", "details": "application rate 1.0 kg/ha, scale 0 to 100", "text": "as §1, §2, §3, §4, §5"}, "ALOMY": {"system": "ALOMY", "test": "active compound combinations, pre-emergence greenhouse test (Colby synergy)", "assay_type": "in vivo, Alopecurus myosuroides", "text": "as §1\n(§6) For the pre-emergence treatment, the active compounds, which had been suspended or emulsified in water, were applied directly after sowing by means of finely distributing nozzles. The containers were irrigated gently to promote germination and growth and subsequently covered with transparent plastic hoods until the plants had rooted. This cover caused uniform germination of the test plants, unless this has been impaired by the active compounds.\n(§7) The respective stated components A and B were formulated as a 5% by weight strength or 10% by weight strength emulsion concentrate, or a commercial formulation of component B was used, and, with addition of the amount of solvent system, introduced into the spray liquor used for applying the active compound. In the examples, the solvent used was water.\n(§8) The test period extended over 20 or 21 days. During this time, the plants were tended, and their reactions to the treatments with the active compounds were monitored.\n(§9) In the examples below, using the method of S. R. Colby (1967) “Calculating synergistic and antagonistic responses of herbicide combinations”, Weeds 15, p. 22ff., the value E, which is expected when the activity of the individual active compounds is only additive, was calculated.\n(§10) If the value determined experimentally is higher than the value E calculated according to Colby, a synergistic effect is present.\n(§11) Here, a.s.=active substance, based on 100% active compound. In the use examples 15 and 16, the values E calculated according to Colby are stated in brackets) ( ).\n(§12) What was evaluated was the damage by the chemical compositions using a scale of from 0 to 100%, in comparison to the untreated control plants. 0 means no damage, and 100 means complete destruction of the plants."}, "LOLMU": {"system": "LOLMU", "test": "active compound combinations, pre-emergence greenhouse test (Colby synergy)", "assay_type": "in vivo, Lolium multiflorum", "text": "as §1, §6, §7, §8, §9, §10, §11, §12"}, "SETFA [2]": {"system": "SETFA", "test": "active compound combinations, pre-emergence greenhouse test (Colby synergy)", "assay_type": "in vivo, Setaria faberi", "text": "as §1, §6, §7, §8, §9, §10, §11, §12"}, "[3]": {"details": "use example 14, application rate a.s. 31.25 g/ha"}, "[4]": {"details": "use example 14, application rate a.s. 62.5 g/ha"}, "[5]": {"details": "use example 14, application rate a.s. 125 g/ha"}, "[6]": {"details": "use example 14, application rate a.s. 250 g/ha"}, "[7]": {"details": "use example 14, application rate a.s. 3.12 g/ha"}, "[8]": {"details": "use example 14, application rate a.s. 12.5 g/ha"}, "[9]": {"details": "use example 14, application rate a.s. 25 g/ha"}},
  "data": [
    {"smiles": "C=CCCN1C(=O)C(=Cc2ccccc2C#N)N(C)C(=O)C1(C)Cc1ccccc1", "note": "(stereo not drawn) [I-19]", "values": [
      {"measurement": "herbicidal activity against ECHCG", "setting": "ECHCG", "result": "very good (a very good herbicidal activity is given at values of at least 85)"},
      {"measurement": "herbicidal activity against SETIT", "setting": "SETIT", "result": "very good (a very good herbicidal activity is given at values of at least 85)"}
    ]},
    {"smiles": "CCCCCN1C(=O)C(=Cc2ccccc2C#N)N(C)C(=O)C1(C)Cc1ccccc1", "note": "(stereo not drawn) [I-21]", "values": [
      {"measurement": "herbicidal activity against CHEAL", "setting": "CHEAL", "result": "very good (a very good herbicidal activity is given at values of at least 85)"}
    ]},
    {"smiles": "CN1C(=O)C(C)(Cc2ccccc2)N(CC2CC2)C(=O)C1=Cc1ccccc1C#N", "note": "(stereo not drawn) [I-25]", "values": [
      {"measurement": "herbicidal activity against SETFA", "setting": "SETFA [1]", "result": "very good (a very good herbicidal activity is given at values of at least 85)"}
    ]},
    {"smiles": "CCOc1ncccc1CC1C(=O)N(COC)C(C)(Cc2ccccc2)C(=O)N1C", "note": "(stereo not drawn) [II-26]", "values": [
      {"measurement": "Herbicidal activity in % after 20 days against ALOMY", "setting": "ALOMY; [3]", "result": 30, "unit": "%"},
      {"measurement": "Herbicidal activity in % after 20 days against ALOMY", "setting": "ALOMY; [4]", "result": 60, "unit": "%"},
      {"measurement": "Herbicidal activity in % after 20 days against ALOMY", "setting": "ALOMY; [5]", "result": 90, "unit": "%"},
      {"measurement": "Herbicidal activity in % after 20 days against ALOMY", "setting": "ALOMY; [6]", "result": 95, "unit": "%"},
      {"measurement": "Herbicidal activity in % after 20 days against LOLMU", "setting": "LOLMU; [3]", "result": 0, "unit": "%"},
      {"measurement": "Herbicidal activity in % after 20 days against LOLMU", "setting": "LOLMU; [4]", "result": 15, "unit": "%"},
      {"measurement": "Herbicidal activity in % after 20 days against LOLMU", "setting": "LOLMU; [5]", "result": 98, "unit": "%"},
      {"measurement": "Herbicidal activity in % after 20 days against SETFA", "setting": "SETFA [2]; [3]", "result": 10, "unit": "%"},
      {"measurement": "Herbicidal activity in % after 20 days against SETFA", "setting": "SETFA [2]; [5]", "result": 75, "unit": "%"},
      {"measurement": "Herbicidal activity in % after 20 days against SETFA", "setting": "SETFA [2]; [6]", "result": 100, "unit": "%"}
    ]},
    {"smiles": "CCNc1nc(Cl)nc(NC(C)C)n1", "note": "[atrazine]", "values": [
      {"measurement": "Herbicidal activity in % after 20 days against ALOMY", "setting": "ALOMY; application rate a.s. 125 g/ha", "result": 35, "unit": "%"},
      {"measurement": "Herbicidal activity in % after 20 days against ALOMY", "setting": "ALOMY; application rate a.s. 250 g/ha", "result": 65, "unit": "%"},
      {"measurement": "Herbicidal activity in % after 20 days against LOLMU", "setting": "LOLMU; application rate a.s. 125 g/ha", "result": 0, "unit": "%"},
      {"measurement": "Herbicidal activity in % after 20 days against LOLMU", "setting": "LOLMU; application rate a.s. 250 g/ha", "result": 20, "unit": "%"}
    ]},
    {"smiles": "Cn1nc(C(F)(F)F)c(CS(=O)(=O)C2=NOC(C)(C)C2)c1OC(F)F", "note": "[pyroxasulfone]", "values": [
      {"measurement": "Herbicidal activity in % after 20 days against ALOMY", "setting": "ALOMY; [7]", "result": 25, "unit": "%"},
      {"measurement": "Herbicidal activity in % after 20 days against ALOMY", "setting": "ALOMY; [8]", "result": 95, "unit": "%"},
      {"measurement": "Herbicidal activity in % after 20 days against ALOMY", "setting": "ALOMY; [9]", "result": 95, "unit": "%"},
      {"measurement": "Herbicidal activity in % after 20 days against LOLMU", "setting": "LOLMU; [7]", "result": 15, "unit": "%"},
      {"measurement": "Herbicidal activity in % after 20 days against LOLMU", "setting": "LOLMU; [8]", "result": 75, "unit": "%"},
      {"measurement": "Herbicidal activity in % after 20 days against LOLMU", "setting": "LOLMU; [9]", "result": 80, "unit": "%"},
      {"measurement": "Herbicidal activity in % after 20 days against SETFA", "setting": "SETFA [2]; [7]", "result": 0, "unit": "%"},
      {"measurement": "Herbicidal activity in % after 20 days against SETFA", "setting": "SETFA [2]; use example 14, application rate a.s. 6.25 g/ha", "result": 25, "unit": "%"},
      {"measurement": "Herbicidal activity in % after 20 days against SETFA", "setting": "SETFA [2]; [9]", "result": 95, "unit": "%"}
    ]}
  ]
}
